Test results as given in US20260240976A1, “T[…] VACCINES BASED ON VALIDATED TARGET EPITOPES” (Deutsches Krebsforschungszentrum Stiftung des öffentlichen …, priority 2023, published 2026).
Where a SMILES comes first, the peptide text is derived from it.

Assays:
[1] = tested on: short-term antigen-specific T cell lines generated from PBMCs; assay: Interferon-γ ELISpot assay on short-term antigen-specific T cell lines; assay type: cell-based, human; conditions: HLA restriction A24
HPV16-positive cells = assay: Cytotoxicity assay (VITAL FR / live-cell imaging-based) with peptide-specific CD8+ T cells; design: species or system human; key: +: cytotox: Ability of peptide-specific T cells to kill HPV16-positive cells.; +*: *highlights data from published resources.; *highlights data from published resources
Description: The flow cytometry based VITAL FR cytotoxicity assay was used as published by Stanke et al. (Stanke et al., 2010) to assess whether peptide-specific T cells are able to specifically kill HPV-transformed target cells. Briefly, two HLA-A2+ cell lines, a HPV16-negative (HPV16−) control cell line (C33A) and a HPV16-positive (HPV16+) target cell line (CaSki) were fluorescently labeled with either FarRed or CFSE and were co-incubated with peptide-specific CD8+ T cells as effector cells. After 48 h co-incubation, the fluorescently labeled cells were analyzed by flow cytometry to determine the surviving cells and calculate the specific cytolytic function of the effector cells by the ratio of target and control cells.
CaSki and C33A cells were fluorescently labeled with CFSE and FarRed, respectively. Cells of both cell lines were harvested and resuspended in plain RPMI medium at a concentration of 1×10^6 cells/mL. For cell labeling, 5 μM CSFE were added to CaSki cells and 0.25 μM FarRed were added to C33A cells. The cells were incubated at 37° C. and the reaction was stopped after 10 min by addition of 50 mL RPMI with 10% FBS. The cells were centrifuged at 300×g for 5 min, the supernatant was discarded and the cells were resuspended in their cell culture medium. The labeled cells were seeded in T25 cell culture flasks with 1-2×10^6 cells/flask.
On the next day, the labeled CaSki and C33A as well as the epitope-specific semi-long-term T cell lines (described in 1.6) were harvested. CD8+ T cells were isolated from the epitope-specific semi-long-term T cell lines using the MACS CD8+ T cell isolation kit (Miltenyi Biotec) according to the manufacturer's protocol for LS columns. The CD8+ T cells were resuspended in T cell medium and added to wells of a F-bottom 96-well plate in serial dilutions to achieve triplicates of 6×10^4, 3×10^4, 1.5×10^4, 0.75×10^4 and 0.375×10^4 cells per well. The CaSki and C33A cells were mixed 1:1 in T cell medium and 3×10^3 cells were added to each well containing T cells. Thereby effector:target (E:T) ratios of […] were achieved. Additionally, triplicates of mixed target cells without T cells were seeded, which is referred to as E:T 0. After 48 h incubation at 37° C., 5% C02, the cells were harvested and analyzed at a BD FACS Canto™ II analyzer using the BD FACS Diva Software Version 6. The obtained data were analyzed with the FlowJo software Version 10 by applying the same gating strategy to all samples. Subsequently, the equations (1) and (2) given below were applied in Excel (Microsoft Office 2016) to calculate specific killing.
Semi long-term T cell lines were set up to obtain high numbers of T cells, which are required for the analysis of epitope specific cytotoxic T cell responses in VITAL FR cytotoxicity assays. Autologous DCs were generated from PBMCs as described in 1.7 and loaded with the desired HPV16 peptide. PBMCs of the same donor were thawed and resuspended in T cell medium supplemented with rhIL-7 (10 ng/mL) and rhIL-15 (20 ng/mL). 1×10^7 PBMCs/well were seeded to a 24-well plate in a total volume of 1 mL/well. Peptide-loaded DCs were added in a ratio of 50:1 (PBMCs:DCs) in 1 mL rhIL-7 (10 ng/mL) and rhIL-15 (20 ng/mL) supplemented T cell medium to achieve a final volume of 2 mL. The cell cultures were fed with rhIL-2 (final concentration: 40 U/mL) every other day. If the medium turned yellow the feeding was combined with a half medium change with 1 mL fresh IL-2 supplemented T cell medium. After eight days, the peptide stimulation with peptide-loaded DCs was repeated and cultivation was continued. On day 15, the T cell lines were harvested and used for CD8+ T cell isolation and cytotoxicity assays.
In addition to the VITAL FR assay described herein above, a newly established live-cell imaging-based cytotoxicity assay was applied. […]

Molecule	ELISpot: Immungenicity of the peptide shown by IFN-gamma ELISPOT analysis [1]	cytotox: Ability of peptide-specific T cells to kill HPV16-positive cells (HPV16-positive cells; HLA restriction A24)	cytotox: Ability of peptide-specific T cells to kill HPV16-positive cells (HPV16-positive cells; HLA restriction A02)
83 (TFCCKCDSTL; Human papillomavirus 16) [compound 83]	+	+	–
CC[C@H](C)[C@H](NC(=O)CNC(=O)[C@H](CC(C)C)NC(=O)[C@@H](NC(=O)CNC(=O)[C@H](CCSC)NC(=O)[C@H](CC(C)C)NC(=O)[C@H](CC(C)C)NC(=O)[C@H](CC(=O)O)NC(=O)[C@@H](N)CCC(=O)O)[C@@H](C)O)C(=O)N[C@H](C(=O)O)C(C)C [compound 21] (H-EDLLMGTLGIV-OH)	–	–	+
CC(C)C[C@H](NC(=O)[C@@H](N)CCCNC(=N)N)C(=O)N[C@@H](CS)C(=O)N[C@H](C(=O)N[C@@H](CCC(N)=O)C(=O)N[C@@H](CO)C(=O)N[C@H](C(=O)N[C@@H](Cc1c[nH]cn1)C(=O)N[C@H](C(=O)O)C(C)C)[C@@H](C)O)C(C)C [compound 17] (H-RLCVQSTHV-OH)	–	–	+
CC[C@H](C)[C@H](NC(=O)CNC(=O)[C@H](CC(C)C)NC(=O)[C@@H](NC(=O)CNC(=O)[C@H](CCSC)NC(=O)[C@H](CC(C)C)NC(=O)[C@@H](N)CC(C)C)[C@@H](C)O)C(=O)N[C@H](C(=O)N[C@@H](CS)C(=O)N1CCC[C@H]1C(=O)O)C(C)C [compound 44] (H-LLMGTLGIVCP-OH)	–	–	+
